In assay [1] the test system is Sprague-Dawley (SD) rats with loperamide-induced constipation. Nature of the assay: Prevention of loperamide-induced constipation: number and weight of feces (Experimental Example 2). The class given is in vivo, rat. The procedure: Four-week-old male Sprague-Dawley (SD) rats were purchased from Damul Science (Daejeon, Korea) and bred at a temperature of 20±2° C. and a humidity of 55±5% on a 12 h light-dark cycle. The experimental animals were acclimated for 1 week after purchase and were divided into the experimental groups (5 animals per group) shown in Table 3.
All experimental groups other than the normal control (NOR) and the negative control (LOP) were administered orally the respective drugs (positive controls) or the respective fermented products of Preparative Example 4 for 5 days before loperamide administration.
The negative control (LOP), the positive controls (CON1, CON2), and all experimental groups other than the normal control (NOR) were administered subcutaneously loperamide for 5 days to induce constipation. The experimental animals were sacrificed on day 6 after initiation of the loperamide administration.

Assay [2] shares this test system. Description: Colonic transits of carmine dye (Experimental Example 3). The class given is in vivo, rat. The note with it: 20 min after oral carmine dye. The procedure:
At day 6, 3 mL of carmine dye at a concentration of 1.5% (w/v) in physiological saline was administered orally to the experimental animals. 20 min after the oral administration, the experimental animals were sacrificed. Thereafter, in each experimental animal, both ends of the site of the colon from the appendix to the rectum were ligated. The colon site was excised and washed with PBS. The colonic transits of the carmine dye were measured from FIG. 6.

Two compounds from patent publication US20170252392A1, “COMPOSITION FOR IMPROVEMENT, TREATMENT OR PREVENTION OF CONSTIPATION COMPRISING CASSIA SEED LACTIC ACID BACTERIA FERMENTED PRODUCT AS EFFECTIVE INGREDIENT, AND METHOD FOR PREPARING SAME” (HAENAM NATURAL FARMING ASSOCIATION COOPERATION, priority 2014, published 2017) can be followed below.

Consider `CN(C)C(=O)C(CCN1CCC(O)(c2ccc(Cl)cc2)CC1)(c1ccccc1)c1ccccc1` [loperamide], for which the Weight of feces in assay [1] (negative control (LOP): loperamide 4 mg/kg subcutaneously for 5 days, normal control 4.8±0.89) came to 2.6±0.32. Besides, the Number of feces in assay [1] (negative control (LOP): loperamide 4 mg/kg subcutaneously for 5 days, normal control 47.2±5.8) was found to be 23.1±3.6. Also, the “Colonic transit of the carmine dye” value in assay [2] (negative control (LOP): loperamide 4 mg/kg s.c. 5 days, normal control 13.4±0.94 cm) came to 6.6±0.75 cm.

Regarding sennoside, the Number of feces result in assay [1] (sennoside 50 mg/kg oral before loperamide 4 mg/kg s.c. 5 days (CON1)) is reported as “more effective in increasing the number of feces than Dulcolax-S”. The Weight of feces entry in assay [1] (sennoside 50 mg/kg oral before loperamide (CON1), compared with CON2) is reported as “no significant difference in the weight of feces”. In addition, the “Colonic transit of the carmine dye” value in assay [2] (sennoside 50 mg/kg oral before loperamide (CON1)) is recorded as “significantly increased compared to that in the negative control (LOP)”.
